Test results published in the pKa sets of Baltruschat and Czodrowski (2020).
Where a SMILES comes first, the peptide text is derived from it.

Conditions: basic group

With O=C(c1ccccc1)N(O)c1ccccc1 as the compound, how does the pKa read?
Its pKa is -2.08.

With Cc1cc(N)nc(N)n1 as the compound, how does the pKa read?
Its pKa is 7.65.

With Cn1ncc2ccccc21 as the compound, how does the pKa read?
Its pKa is 0.51.

Which pKa does the source give for Cc1ccc(C2CCCN2)cc1 (stereo not drawn) here?
Its pKa is 9.99.

With CN1CCC[NH+](C)Cc2ccccc2OCCOc2ccccc2C1 as the compound, how does the pKa read?
Its pKa is 7.92.

With COC(=O)c1ccccc1N(C)C as the compound, how does the pKa read?
Its pKa is 5.55.

For CCCCOc1ccc(OCCCN2CCOCC2)cc1, which pKa is on record?
The pKa was 6.24.

For [S-]c1ncnc2nc[nH]c12, which pKa is on record?
The pKa was 7.74.

Which pKa does the source give for O=C([O-])c1cc2cc(Cn3ccnc3)ccc2o1 here?
Its pKa is 7.17.

With Cc1ncnc2c(O)cccc12 as the compound, how does the pKa read?
Its pKa is 2.9.

Which pKa does the source give for COc1ccc2c3c1O[C@H]1C(=O)CC[C@H]4[C@@H](C2)N(C)CC[C@]314 here?
Its pKa is 7.67.

With CC(O)CN(C)CCO (stereo not drawn) as the compound, how does the pKa read?
The pKa was 8.69.

For CCc1cnc(C(=O)[O-])cc1CC, which pKa is on record?
Its pKa is 6.58.

For Cc1ccc(C2CN2)cc1 (stereo not drawn), which pKa is on record?
Its pKa is 6.76.

With CN(C)c1ccc2cc3ccc(N(C)C)cc3nc2c1 as the compound, how does the pKa read?
Its pKa is 10.4.

With OCCC[C@@H]1CC[C@@H]2CCCN12 as the compound, how does the pKa read?
Its pKa is 11.5.

For NCC(=O)NN, which pKa is on record?
Its pKa is 7.69.

With COc1cc(S(C)=O)ccc1-c1cn2ccnc(OC)c2n1 (stereo not drawn) as the compound, how does the pKa read?
Its pKa is 2.46.

Which pKa does the source give for [O-]c1cccnn1 here?
Its pKa is 10.5.

For CNc1nc(SC)nc2[nH]ncc12, which pKa is on record?
Its pKa is 3.61.

With CN1C[C@H](C(=O)[O-])C=C2c3cccc4[nH]cc(c34)C[C@@H]21 as the compound, how does the pKa read?
The pKa was 8.49.

With CNCC(C)c1ccccc1 (stereo not drawn) as the compound, how does the pKa read?
Its pKa is 9.87.

For CC(C)(C)N1NC2CCC1CC2, which pKa is on record?
Its pKa is 9.54.

For CSc1ccnc2ccccc12, which pKa is on record?
Its pKa is 5.81.

Which pKa does the source give for CCc1cc(-c2ccccc2)nnc1NCCN1CCOCC1 here?
Its pKa is 7.08.

With COc1cc(S(C)=O)ccc1-c1nc2cnncc2[nH]1 (stereo not drawn) as the compound, how does the pKa read?
Its pKa is 3.81.

With CCOc1ccc2[nH]c(C(C)C)nc2c1 as the compound, how does the pKa read?
Its pKa is 6.17.

With CCCCN(C)N(C)CCCC as the compound, how does the pKa read?
The pKa was 7.16.

For Cc1cc(-c2ccccc2)nnc1NCC[NH+]1CCOCC1, which pKa is on record?
The pKa was 4.

Which pKa does the source give for Clc1ccc(Nc2ccccc2)cc1 here?
Its pKa is 0.

For O=C([O-])CCc1nc2ccccc2[nH]1, which pKa is on record?
The pKa was 5.7.

With N#CC1=CN2CCC1CC2 as the compound, how does the pKa read?
The pKa was 5.84.

Which pKa does the source give for c1cc(N2CCCC2)cc[nH+]1 here?
The pKa was -0.53.

For NCCc1c[nH]c2ccccc12, which pKa is on record?
The pKa was 10.2.

With CC(C)(C)c1cc(N)cc(C(C)(C)C)c1[N+](=O)[O-] as the compound, how does the pKa read?
The pKa was 2.93.

For Cc1[nH]cnc1CSCCNC(=N)NCCCc1c[nH]cn1, which pKa is on record?
The pKa was 11.6.

With CCN(CCC#N)CCC#N as the compound, how does the pKa read?
The pKa was 4.55.

Which pKa does the source give for [S-]c1ccncn1 here?
Its pKa is 6.7.

Which pKa does the source give for CC(C)CNCC(=O)[O-] here?
Its pKa is 10.1.

With Cc1cccc(C)c1N as the compound, how does the pKa read?
Its pKa is 3.84.

With CCCCCCCCCCCCCCCCCCN(CC(O)CC)CC(O)CC (stereo not drawn) as the compound, how does the pKa read?
The pKa was 5.6.

Which pKa does the source give for NCCc1cccnc1 here?
Its pKa is 9.44.

With Nc1ccccc1-c1nc2ccccc2s1 as the compound, how does the pKa read?
The pKa was 2.6.

Which pKa does the source give for Cc1cnc(C)c(C)[nH+]1 here?
Its pKa is -3.6.

For Cc1nc2cc(N)ccc2n1C, which pKa is on record?
The pKa was 7.

For CC(C)C[C@H](N)C(=O)N[C@@H](Cc1c[nH]cn1)C(=O)[O-] (H-Leu-His-OH), which pKa is on record?
The pKa was 7.78.

For COc1ncc2[nH]cnc2n1, which pKa is on record?
Its pKa is 2.44.

Which pKa does the source give for Nc1ccccc1S(N)(=O)=O here?
Its pKa is 1.

Which pKa does the source give for [O-]c1cnc2ccccc2n1 here?
Its pKa is 9.1.

Which pKa does the source give for O=Cc1ncccc1O here?
The pKa was 3.4.

For [O-]c1cc[n+]([C@H]2O[C@@H](CO)[C@H](O)[C@H]2O)c([O-])n1, which pKa is on record?
Its pKa is 9.3.

Which pKa does the source give for O=[N+]([O-])c1ccc(-n2cnnn2)cc1 here?
Its pKa is -3.92.

Which pKa does the source give for CC[NH+](CC)CCOCCN(C)C here?
Its pKa is 8.4.

Which pKa does the source give for Nc1nc2ccccc2o1 here?
The pKa was 3.73.

Which pKa does the source give for CCCCCCCCCCCCN(CCO)CC(C)O (stereo not drawn) here?
The pKa was 6.5.

For Cn1cncc1C[C@H]([NH3+])C(=O)[O-], which pKa is on record?
The pKa was 6.53.

With O=[N+]([O-])c1cc(CN2CCCCC2)c([O-])c2ccccc12 as the compound, how does the pKa read?
Its pKa is 10.7.

Which pKa does the source give for Cc1cccc(CO)n1 here?
The pKa was 5.2.

For COc1ccc2c3c1O[C@H]1[C@@H](O)C=C[C@H]4[C@@H](C2)N(CCC#N)CC[C@@]341, which pKa is on record?
The pKa was 5.68.

Which pKa does the source give for CSCCN here?
Its pKa is 9.41.

With CCCc1ccc([C@@H]2CCC[NH+]2C)cn1 as the compound, how does the pKa read?
Its pKa is 3.65.

For Nc1cc([NH3+])ccc1O, which pKa is on record?
Its pKa is 3.05.

For O=C([O-])C1CSCN1 (stereo not drawn), which pKa is on record?
Its pKa is 6.23.
